Like-named read-outs stand apart in the source and are kept apart here.
Columns and labels:
[1] = system: CEM cells (human T-cell lymphoma); test: Prevention of β-D-GA-related cytotoxicity by natural nucleosides, CEM cells; format: cell-based; conditions: 50 μM natural nucleoside, 4 days, plot not shown
Description: (§1) The prevention of β-D-GA-related cytotoxicity in CEM cells (human T-cell lymphoma) and in the SUDHL-1 cells (human anaplastic large T-cell lymphoma cell line) was studied by adding natural nucleosides. This experiment was initiated by adding 50 μM of natural nucleosides into the media, together with increasing concentration of β-D-GA. CEM cells were seeded at 2500 cells per well and incubated for 4 days (=fast growing cell line with a doubling time of 1.3 days). SUDHL-1 cells were seeded at 10,000 cells/well, and incubated for 3 days (=slow growing cell line, doubling time 3 days). The result of this experiment is plotted in FIG. 4.

[2] = system: SUDHL-1 cells (human anaplastic large T-cell lymphoma cell line); test: Prevention of β-D-GA-related cytotoxicity by natural nucleosides, SUDHL-1 cells; format: cell-based; conditions: 50 μM natural nucleoside; SUDHL-1 cells, 3 days; FIG. 4
Description: as §1

Influenza A (H1N1) [3] = test: microbe, parasite or virus in culture; format: cell-based
[4] = system: Parainfluenza Type 3 Virus; test: organism not typed; format: cell-based, Parainfluenza type 3 virus strain 14702
Influenza A (H1N1) [5] = test: microbe, parasite or virus in culture; format: cell-based; conditions: Initial Test, Neutral Red
[6] = system: Parainfluenza Type 3 Virus; test: organism not typed; format: cell-based; conditions: Initial Test, Neutral Red
[7] = system: Respiratory Syncytial Virus A; test: microbe, parasite or virus in culture; format: cell-based; conditions: Initial Test, Neutral Red
Influenza A (H1N1) [8] = format: cell-based, Influenza A virus A/Beijing/262/95
Influenza B [9] = test: microbe, parasite or virus in culture; format: cell-based; conditions: Initial Test, Neutral Red
HCV replicon = HCV replicon system in Huh7 cells, replicon RNA by Q-RT-PCR (HCV ΔCt, ΔΔCt); format: cell-based, hepatitis C virus; conditions: for Ave. HCV RNA ΔCt: HCV replicon in Huh7 cells
Influenza A (H3N2) [10] = format: cell-based, Influenza A virus A/Sydney/05/97
[11] = system: Respiratory Syncytial Virus A; test: microbe, parasite or virus in culture; format: cell-based, Respiratory Syncytial Virus strain A2
Influenza B [12] = format: cell-based, Influenza B virus B/Beijing/184/93
Influenza B [13] = test: microbe, parasite or virus in culture; format: cell-based
Influenza A (H3N2) [14] = test: microbe, parasite or virus in culture; format: cell-based; conditions: Initial Test, Neutral Red
[15] = system: rRNA (host RNA polymerase I product); test: rRNA ΔCt in Huh7 replicon cells (effect on host RNA polymerases); conditions: Table 24, average of n
Procedure, shortened: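 Host RNA polymerase I activity estimated by quantifying rRNA in replicon cells relative to no-drug control, expressed as ΔCt. A specificity parameter is obtained by subtracting the HCV ΔCt and rRNA ΔCt values from each other.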

Influenza A (H3N2) [16] = test: microbe, parasite or virus in culture; format: cell-based
rDNA (host DNA) = test: rDNA ΔCt in Huh7 replicon cells (effect on cellular DNA polymerases); conditions: Table 25, average of N
Procedure, shortened: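 Host rDNA (or beta-actin DNA) quantified in treated Huh7 replicon cells and compared with no-drug control as ΔCt, a relative measure of cellular DNA polymerase inhibition. A specificity parameter is obtained by subtracting the rDNA ΔCt from the HCV ΔCt.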

[17] = Confirmatory Test, Visual (EC50)
[18] = Initial Test, CPE Inhibition (Visual)

O=c1ccn([C@@H]2O[C@H](CO)[C@@H](O)[C@H]2O)c(=O)[nH]1 [uridine]
prevention of β-D-GA toxicity, in words [1]: markedly prevent β-D-GA toxicity | prevention of β-D-GA toxicity, in words [2]: markedly prevent β-D-GA toxicity

O=c1nc(NO)ccn1[C@@H]1O[C@H](CO)[C@@H](O)[C@H]1O [β-D-BS]
EC50 (Influenza A (H1N1) [3]; [17]): 1300 nM | EC50 (Influenza A (H1N1) [3]; [18]): 1500 nM | antiviral activity against influenza A and B, in words (Influenza A (H1N1) [3]; summary of Table 23, influenza A and B): potent in vitro antiviral capacities against influenza A and B | EC50 ([4]; Initial Test, CPE Inhibition (Visual), read-out: EC50, Parainfluenza Type 3 Virus): > 500000 nM | antiviral activity against Parainfluenza type 3 virus, in words ([4]; summary of Table 23): no activity against Parainfluenza type 3 virus | EC50 (Influenza A (H1N1) [5]): 1200 nM | EC50 [6]: 40000 nM | EC50 [7]: < 500 nM | EC90 (virus yield reduction) (Influenza A (H1N1) [8]): 400 nM | EC50 (Influenza B [9]): 1200 nM | Ave. ΔΔCt (HCV replicon; Table 24, HCV RNA ΔCt minus rRNA ΔCt): 3.83 | Ave. HCV RNA ΔCt (HCV replicon; Table 24, average of n): 4.89 | average ΔΔCt (HCV replicon; Table 25, HCV RNA ΔCt minus rDNA ΔCt): 4.45 | Ave. HCV RNA ΔCt (HCV replicon; Table 25, average of N): 4.81 | EC90 (virus yield reduction) (Influenza A (H3N2) [10]): 320 nM | EC50 ([11]; Initial Test, CPE Inhibition (Visual), read-out: EC50, RSV): 500 nM | antiviral activity against RSV, in words ([11]; summary of Table 23): some activities against RSV | EC90 (μM), virus yield reduction (Influenza B [12]): 0.6 µM | EC50 (Influenza B [13]; [17]): 600 nM | EC50 (Influenza B [13]; [18]): 500 nM | EC50 (Influenza A (H3N2) [14]): 4000 nM | Ave. rRNA ΔCt [15]: 1.05 | EC50 (Influenza A (H3N2) [16]; [17]): 500 nM | EC50 (Influenza A (H3N2) [16]; [18]): 1500 nM | Ave. rDNA ΔCt (rDNA (host DNA)): 0.38

Source: US10100076B2, “Modified nucleosides for the treatment of viral infections and abnormal cellular proliferation” (priority 2000, dated 2018)
